Data reported in patent US20260231994A1, “TASTE-ENHANCING COMPOSITION, METHOD FOR PRODUCING SAME, FOOD PRODUCT, AND METHOD FOR ENHANCING TASTE OF FOOD PRODUCT” (HOUSE FOODS GROUP INC., priority 2023, published 2026).

How the values were obtained:
Format in all cases: in vivo
[1] = Experiment 6 sensory evaluation of cyclic dipeptides, “top sharp saltiness”
Summary of the method: (§1)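 Reduced-sodium curry roux (44 g in 300 g hot water) was spiked with cyclic dipeptide solutions matching heat-treated coriander or paprika levels, at 0.5% or 1.0% (w/w) final. Three evaluators scored each sample against unspiked reduced-sodium and common roux. Mean scores were graded F to AA.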

[2] = Experiment 6 sensory evaluation of cyclic dipeptides, “middle fullness (enhanced thickness)”
Summary of the method: as §1

[3] = Experiment 6 sensory evaluation of cyclic dipeptides, “boosting of last flavor (aftertaste)”
Summary of the method: as §1

[4] = Additive amount paprika 0.5% (heat-treated paprika equivalent aqueous solution, final 0.5% (w/w)), reduced-sodium curry roux
[5] = Additive amount paprika 0.5%, reduced-sodium curry roux
[6] = heat-treated paprika equivalent aqueous solution of cyclic dipeptide, final 1.0% (w/w) in reduced-sodium curry roux dispersion
[7] = heat-treated paprika equivalent aqueous solution of cyclic dipeptide, final 1.0% (w/w) in reduced-sodium curry roux dispersion, 3 evaluators
[8] = Additive amount coriander 0.5% (heat-treated coriander equivalent aqueous solution, final 0.5% (w/w)), reduced-sodium curry roux
[9] = Additive amount coriander 0.5%, reduced-sodium curry roux
[10] = heat-treated coriander equivalent aqueous solution of cyclic dipeptide, final 1.0% (w/w) in reduced-sodium curry roux dispersion
[11] = heat-treated coriander equivalent aqueous solution of cyclic dipeptide, final 1.0% (w/w) in reduced-sodium curry roux dispersion, 3 evaluators

| Substance | Top sharp saltiness Average [1, 4] | Top sharp saltiness Evaluation [1, 5] | Top sharp saltiness Evaluation [1, 6] | Top sharp saltiness Average [1, 7] | Middle fullness Average [2, 5] | Middle fullness Evaluation [2, 5] | Middle fullness Evaluation [2, 6] | Middle fullness Average [2, 7] | Bosting of last flavor Average [3, 5] | Bosting of last flavor Evaluation [3, 5] | Bosting of last flavor Evaluation [3, 6] | Bosting of last flavor Average [3, 7] | Top sharp saltiness Average [1, 8] | Top sharp saltiness Evaluation [1, 9] | Top sharp saltiness Evaluation [1, 10] | Top sharp saltiness Average [1, 11] | Middle fullness Average [2, 9] | Middle fullness Evaluation [2, 9] | Middle fullness Evaluation [2, 10] | Middle fullness Average [2, 11] | further results |
| --- | --- | --- | --- | --- | --- | --- | --- | --- | --- | --- | --- | --- | --- | --- | --- | --- | --- | --- | --- | --- | --- |
| cyclic (Leu/Ile-Ser) [Coriander ID 24] | 2.9 points | A (“A” when it was 2.6 or higher and 2.9 or lower) | C (“C” when it was 1.1 or higher and 1.9 or lower) | 1.7 points | 3.1 points | AA (“AA” when it was 3.0 or higher) | C (“C” when it was 1.1 or higher and 1.9 or lower) | 1.8 points | 2.9 points | A (“A” when it was 2.6 or higher and 2.9 or lower) | B (“B” when it was 2.0 or higher and 2.5 or lower) | 2.2 points | – | – | – | – | – | – | – | – | – |
| cyclic (Phe-Asp) [Coriander ID 34] | 3.0 points | AA (“AA” when it was 3.0 or higher) | AA (“AA” when it was 3.0 or higher) | 3.2 points | 2.8 points | A (“A” when it was 2.6 or higher and 2.9 or lower) | AA (“AA” when it was 3.0 or higher) | 3.2 points | 2.7 points | A (“A” when it was 2.6 or higher and 2.9 or lower) | AA (“AA” when it was 3.0 or higher) | 3.2 points | – | – | – | – | – | – | – | – | – |
| cyclic (Phe-Phe) [Coriander ID 43] | – | – | – | – | – | – | – | – | – | – | – | – | 2.3 points | B (“B” when it was 2.0 or higher and 2.5 or lower) | A (“A” when it was 2.6 or higher and 2.9 or lower) | 2.8 points | 2.3 points | B (“B” when it was 2.0 or higher and 2.5 or lower) | A (“A” when it was 2.6 or higher and 2.9 or lower) | 2.7 points | Bosting of last flavor Average [3, 9]: 3.2 points; Bosting of last flavor Evaluation [3, 9]: AA (“AA” when it was 3.0 or higher); Bosting of last flavor Evaluation [3, 10]: A (“A” when it was 2.6 or higher and 2.9 or lower); Bosting of last flavor Average [3, 11]: 2.7 points |
| cyclic (Phe-Ser) | 2.3 points | B (“B” when it was 2.0 or higher and 2.5 or lower) | B (“B” when it was 2.0 or higher and 2.5 or lower) | 2.2 points | 2.8 points | A (“A” when it was 2.6 or higher and 2.9 or lower) | B (“B” when it was 2.0 or higher and 2.5 or lower) | 2.3 points | 3.0 points | AA (“AA” when it was 3.0 or higher) | B (“B” when it was 2.0 or higher and 2.5 or lower) | 2.3 points | – | – | – | – | – | – | – | – | – |
| cyclic (Phe-Thr) [Coriander ID 37] | 1.8 points | C (“C” when it was 1.1 or higher and 1.9 or lower) | B (“B” when it was 2.0 or higher and 2.5 or lower) | 2.3 points | 2.5 points | B (“B” when it was 2.0 or higher and 2.5 or lower) | B (“B” when it was 2.0 or higher and 2.5 or lower) | 2.2 points | 2.7 points | A (“A” when it was 2.6 or higher and 2.9 or lower) | B (“B” when it was 2.0 or higher and 2.5 or lower) | 2.3 points | – | – | – | – | – | – | – | – | – |
| cyclic (Phe-Tyr) [Coriander ID 41] | 1.8 points | C (“C” when it was 1.1 or higher and 1.9 or lower) | A (“A” when it was 2.6 or higher and 2.9 or lower) | 2.7 points | 2.0 points | B (“B” when it was 2.0 or higher and 2.5 or lower) | AA (“AA” when it was 3.0 or higher) | 3.0 points | 2.0 points | B (“B” when it was 2.0 or higher and 2.5 or lower) | A (“A” when it was 2.6 or higher and 2.9 or lower) | 2.8 points | – | – | – | – | – | – | – | – | – |
| cyclic (Pro-Asp) [Coriander ID 16] | 1.8 points | C (“C” when it was 1.1 or higher and 1.9 or lower) | C (“C” when it was 1.1 or higher and 1.9 or lower) | 1.8 points | 2.0 points | B (“B” when it was 2.0 or higher and 2.5 or lower) | B (“B” when it was 2.0 or higher and 2.5 or lower) | 2.0 points | 2.2 points | B (“B” when it was 2.0 or higher and 2.5 or lower) | C (“C” when it was 1.1 or higher and 1.9 or lower) | 1.8 points | – | – | – | – | – | – | – | – | – |
| cyclic (Pro-Glu) [Coriander ID 48] | – | – | – | – | – | – | – | – | – | – | – | – | 1.7 points | C (“C” when it was 1.1 or higher and 1.9 or lower) | B (“B” when it was 2.0 or higher and 2.5 or lower) | 2.0 points | 1.7 points | C (“C” when it was 1.1 or higher and 1.9 or lower) | B (“B” when it was 2.0 or higher and 2.5 or lower) | 2.3 points | Bosting of last flavor Average [3, 9]: 1.8 points; Bosting of last flavor Evaluation [3, 9]: C (“C” when it was 1.1 or higher and 1.9 or lower); Bosting of last flavor Evaluation [3, 10]: B (“B” when it was 2.0 or higher and 2.5 or lower); Bosting of last flavor Average [3, 11]: 2.3 points |
| cyclic (Pro-Leu/Ile) [Coriander ID 39] | – | – | – | – | – | – | – | – | – | – | – | – | 1.5 points | C (“C” when it was 1.1 or higher and 1.9 or lower) | C (“C” when it was 1.1 or higher and 1.9 or lower) | 1.8 points | 1.8 points | C (“C” when it was 1.1 or higher and 1.9 or lower) | C (“C” when it was 1.1 or higher and 1.9 or lower) | 1.8 points | Bosting of last flavor Average [3, 9]: 2.2 points; Bosting of last flavor Evaluation [3, 9]: B (“B” when it was 2.0 or higher and 2.5 or lower); Bosting of last flavor Evaluation [3, 10]: C (“C” when it was 1.1 or higher and 1.9 or lower); Bosting of last flavor Average [3, 11]: 1.7 points |
| cyclic (Pro-Pro) [Coriander ID 18] | – | – | – | – | – | – | – | – | – | – | – | – | 2.2 points | B (“B” when it was 2.0 or higher and 2.5 or lower) | B (“B” when it was 2.0 or higher and 2.5 or lower) | 2.3 points | 2.5 points | B (“B” when it was 2.0 or higher and 2.5 or lower) | A (“A” when it was 2.6 or higher and 2.9 or lower) | 2.7 points | Bosting of last flavor Average [3, 9]: 2.3 points; Bosting of last flavor Evaluation [3, 9]: B (“B” when it was 2.0 or higher and 2.5 or lower); Bosting of last flavor Evaluation [3, 10]: B (“B” when it was 2.0 or higher and 2.5 or lower); Bosting of last flavor Average [3, 11]: 2.5 points |
| cyclic (Pro-Tyr) [Coriander ID 31] | – | – | – | – | – | – | – | – | – | – | – | – | 2.5 points | B (“B” when it was 2.0 or higher and 2.5 or lower) | B (“B” when it was 2.0 or higher and 2.5 or lower) | 2.0 points | 2.5 points | B (“B” when it was 2.0 or higher and 2.5 or lower) | B (“B” when it was 2.0 or higher and 2.5 or lower) | 2.0 points | Bosting of last flavor Average [3, 9]: 2.5 points; Bosting of last flavor Evaluation [3, 9]: B (“B” when it was 2.0 or higher and 2.5 or lower); Bosting of last flavor Evaluation [3, 10]: B (“B” when it was 2.0 or higher and 2.5 or lower); Bosting of last flavor Average [3, 11]: 2.0 points |
| cyclic (Thr-Leu/Ile) [Coriander ID 3] | 2.0 points | B (“B” when it was 2.0 or higher and 2.5 or lower) | C (“C” when it was 1.1 or higher and 1.9 or lower) | 1.7 points | 2.5 points | B (“B” when it was 2.0 or higher and 2.5 or lower) | B (“B” when it was 2.0 or higher and 2.5 or lower) | 2.2 points | 3.0 points | AA (“AA” when it was 3.0 or higher) | C (“C” when it was 1.1 or higher and 1.9 or lower) | 1.7 points | – | – | – | – | – | – | – | – | – |
